Results on eleven compounds are retold here after ChEMBL document CHEMBL1201862, “PubChem BioAssay data set” (2004).

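Dose response: 5 concentrations. Exposure: 48 h. Format: 96-well plates. Endpoint: linear interpolation; highest concentration if not reached. Abbreviation: GI50, concentration required for 50% inhibition of growth.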 Active and inactive are the calls of the source. Cut-off read from the data, not from the text of the source: active = GI50 up to about 1.1 µM and inactive = higher.

Holding throughout (assay): DTP human tumour cell line panel, 48 h
Assay [1] concerns Hs-578T.
Assay [2] concerns HOP-62.
Assay [3] relates to MDA-N.
For assay [4], the system named is UO-31.
The subject of assay [5] is OVCAR-4.
Assay [6] deals with EKVX.
Assay [7] has as its system SF-295.
In assay [8] the test system is HCT-116.
For assay [9], the system named is NCI-H23.
For assay [10], the system named is K562.
Assay [11] deals with CCRF-CEM.
Assay [12] concerns HL-60.
The subject of assay [13] is SNB-75.
Assay [14] concerns ACHN.
Assay [15] deals with IGROV-1.
Assay [16] has as its system HCT-15.
Assay [17] relates to KM12.
Assay [18] concerns DU-145.
Assay [19] has as its system SW-620.

Turning to `Cc1ccc(/N=N/C(=N/NC(=O)c2cc(Cl)ccc2O)c2ccc(N(CCC#N)CCC#N)cc2C)cc1`, the GI50 (as a rule, the concentration giving 50% growth inhibition) in [1] was 9.95 µM (inactive); in [2] it was 32.8 µM (inactive); in assay [3], 30.6 µM (inactive); in assay [4] it was 24.8 µM (inactive); in [5], 23.8 µM (inactive); in assay [6], 21.5 µM (inactive). Also, the GI50 in assay [7] was 21.3 µM (inactive); in assay [8], 19 µM (inactive); in assay [9], 18.6 µM (inactive); in assay [10], 17.1 µM (inactive); in [11], 26 µM (inactive); in [12], 4.55 µM (inactive). Moreover, the GI50 was 26.7 µM (inactive) in assay [13]; 24.4 µM (inactive) in assay [14]; 23.9 µM (inactive) in [15]; 32.1 µM in assay [16]; 18.1 µM (inactive) in assay [17]; 26.9 µM (inactive) in assay [18].

For the compound `CC(C)COP(=O)(OCC(C)C)C(NS(=O)(=O)c1ccccc1)(C(F)(F)F)C(F)(F)F`, the GI50 in [1] is 9.33 µM (inactive); in assay [2] it was 11.3 µM (inactive); in assay [3] it was 5.51 µM (inactive); in assay [4], 2.22 µM (inactive); in [5], 3.4 µM (inactive); in assay [6], 4.91 µM (inactive). For the same compound, the GI50 was 5.6 µM (inactive) in assay [7]; 5.24 µM (inactive) in assay [8]; 3.81 µM (inactive) in assay [9]; 4.8 µM (inactive) in [10]; 3.36 µM (inactive) in assay [11]; 1.22 µM (inactive) in assay [12]. Further, the GI50 in assay [19] is 4.15 µM (inactive); in assay [13] it was 2.91 µM (inactive); in [14], 2.99 µM (inactive); in [15] it was 4.41 µM (inactive); in [16], 3.94 µM; in [17], 3.93 µM (inactive). The GI50 in assay [18] was 5.71 µM (inactive).

Take `NCCCN(CCCN)CCc1cn(C(=O)c2ccccc2)cn1`: the GI50 in assay [1] is 11.4 µM (inactive); in assay [2], 7.74 µM (inactive); in assay [3], 9.1 µM (inactive); in [5] it was 4.93 µM (inactive); in [6], 7.21 µM (inactive); in [7] it was 12.7 µM (inactive). Besides, the GI50 in assay [8] was 4.86 µM (inactive); in assay [9], 13.2 µM (inactive); in assay [10], 3.61 µM (inactive); in [11], 2.17 µM (inactive); in [12], 3.84 µM (inactive); in [19], 10.2 µM (inactive). The GI50 is 6.07 µM (inactive) in assay [13]; 6.5 µM (inactive) in assay [14]; 4.19 µM (inactive) in [15]; 7.78 µM in assay [16]; 7.82 µM (inactive) in [17]; 4.32 µM (inactive) in [18].

As to `c1ccc(/N=c2/sc3ccccc3s/c2=N/c2ccccc2)cc1`, the GI50 in [1] was 2.68 µM (inactive); in assay [2] it was 4.45 µM (inactive); in assay [3], 1.61 µM (inactive); in [4] it was 1.58 µM (inactive); in assay [5] it was 2.02 µM (inactive); in [6], 2.76 µM (inactive). Also, the GI50 is 3.76 µM (inactive) in assay [7]; 1.72 µM (inactive) in assay [8]; 1.96 µM (inactive) in [9]; 3.78 µM (inactive) in [10]; > 100 µM (inactive) in assay [11]; 6.41 µM (inactive) in assay [12]. Besides, the GI50 was 1.72 µM (inactive) in [19]; 2.82 µM (inactive) in assay [13]; 1.66 µM (inactive) in assay [14]; 1.62 µM (inactive) in [15]; 1.75 µM in assay [16]; 1.99 µM (inactive) in [17]. The GI50 in assay [18] is 5.02 µM (inactive).

Turning to `Cc1ccc(NC2=NCCO2)c2c1CCC2`, the GI50 in [1] is 22.9 µM (inactive); in assay [2], 27.9 µM (inactive); in assay [3], 17.6 µM (inactive); in [4], > 100 µM (inactive); in [5], 48.9 µM (inactive); in [6], 48.4 µM (inactive). Moreover, the GI50 in assay [7] was > 100 µM (inactive); in assay [8], 15.3 µM (inactive); in [9] it was 32.2 µM (inactive); in assay [10], 26.7 µM (inactive); in assay [11], 37.2 µM (inactive); in assay [12], 16.7 µM (inactive). Besides, the GI50 in [19] was 46.9 µM (inactive); in assay [13], 32.9 µM (inactive); in [14], 85.3 µM (inactive); in assay [15], 40 µM (inactive); in assay [16], 44.2 µM; in [17], 30.3 µM (inactive). In addition, the GI50 in assay [18] was 63.2 µM (inactive).

Regarding `O=C(O)c1cc2ccccc2c(O)c1O`, the GI50 was 8.13 µM (inactive) in assay [1]; 18.9 µM (inactive) in assay [2]; 2.14 µM (inactive) in [3]; 20.5 µM (inactive) in [4]; 19 µM (inactive) in assay [5]; 23.4 µM (inactive) in assay [6]. The GI50 was 15.3 µM (inactive) in assay [7]; 16.8 µM (inactive) in assay [8]; 7.29 µM (inactive) in [9]; 8.09 µM (inactive) in [10]; 5.75 µM (inactive) in [11]; 19.4 µM (inactive) in assay [12]. The GI50 is 19.7 µM (inactive) in [19]; 17.9 µM (inactive) in [13]; 16.9 µM (inactive) in assay [14]; 20.2 µM (inactive) in assay [15]; 19.7 µM in assay [16]; 16.3 µM (inactive) in assay [17]. In addition, the GI50 in assay [18] was 18.3 µM (inactive).

For the compound `O=C(NCCCCl)c1c(O)c2ccccc2[nH]c1=O`, the GI50 in assay [1] is > 56.8 µM (inactive); in assay [2], > 50.6 µM (inactive); in [3], > 100 µM (inactive); in assay [4], > 100 µM (inactive); in assay [5], > 100 µM (inactive); in [6], 50.6 µM (inactive). Besides, the GI50 in [7] was > 48.9 µM (inactive); in [8], > 100 µM (inactive); in assay [9], > 87.3 µM (inactive); in assay [10], > 100 µM (inactive); in assay [11] it was > 100 µM (inactive); in assay [12], > 100 µM (inactive). Further, the GI50 was > 100 µM (inactive) in assay [19]; > 54.5 µM (inactive) in assay [13]; > 100 µM (inactive) in assay [14]; > 100 µM (inactive) in assay [15]; over 100 µM in assay [16]; > 100 µM (inactive) in [17]. Further, in assay [18], the GI50 is > 100 µM (inactive).

For `COc1cccc(-c2cc(O)c3cc(C)cnc3n2)c1`, the GI50 was 0.0495 µM (active) in assay [1]; 0.0682 µM (active) in assay [2]; 0.0106 µM (active) in [3]; 1.26 µM (inactive) in assay [4]; > 67.1 µM (inactive) in assay [5]; 0.0405 µM (active) in [7]. The GI50 in assay [8] is 0.0323 µM (active); in assay [9], 0.203 µM (active); in assay [10] it was 0.0381 µM (active); in assay [11] it was 0.0366 µM (active); in assay [12] it was 0.0246 µM (active); in [19] it was 0.06 µM (active). Further, the GI50 in assay [13] is 0.0188 µM (active); in assay [14], 0.0625 µM (active); in assay [15], 0.469 µM (active); in assay [16], 0.251 µM; in assay [17], 0.0885 µM (active); in assay [18] it was 0.308 µM (active).

Take `Cn1nc2n(c1=O)CCCN2`: the GI50 in assay [1], in [2], in [3], in [5], in [6] and in assay [7] was > 100 µM (inactive) in each case. For the same compound, the GI50 in [8], in assay [9], in assay [10], in assay [11], in assay [12] and in assay [19] was > 100 µM (inactive) each time. Besides, the GI50 in assay [13] is > 100 µM (inactive); in assay [14] it was > 100 µM (inactive); in [15], > 100 µM (inactive); in assay [16], over 100 µM; in assay [17] it was > 100 µM (inactive); in assay [18] it was > 100 µM (inactive).

Take `O=C1C(N2CCCC2)=CC(=O)c2c(O)c(N3CCCC3)c(Cl)c(O)c21`: the GI50 in assay [1], in assay [2], in assay [3], in [4], in assay [5] and in assay [6] was > 10 µM (inactive) throughout. In addition, the GI50 in assay [7], in assay [8], in assay [9], in assay [10], in [11] and in [12] was > 10 µM (inactive) throughout. In addition, the GI50 in assay [19], in [13], in assay [14], in [15], in assay [17] and in assay [18] was > 10 µM (inactive) each time.

Regarding `Cc1cccc(C2ON=C(c3ccccc3)N2C23CC4CC(CC(C4)C2)C3)c1` (stereo not drawn), the GI50 in assay [1], in assay [2], in assay [3], in [5], in assay [6] and in assay [7] was > 10 µM (inactive) in each case. The GI50 in assay [8], in assay [9], in assay [10], in assay [11], in [12] and in assay [19] was > 10 µM (inactive) each time. For the same compound, the GI50 in assay [13] is 7.28 µM (inactive); in assay [14], > 10 µM (inactive); in assay [15] it was > 10 µM (inactive); in assay [16] it was over 10 µM; in assay [17], > 10 µM (inactive); in assay [18], > 10 µM (inactive).
